Reference: patent US20210107871A1 (priority 2017, published 2021)

Tested on: pseudotype VSV (expressing GFP) having the surface glycoprotein of Ebola virus (zaire sp.)
Assay: microbe, parasite or virus in culture
Type: cell-based
Conditions: for activity at 0.312 µM / activity at 0.625 µM / activity at 1.25 µM / activity at 2.5 µM / activity at 5 µM / activity at 0.005 µM / activity at 0.02 µM / activity at 0.078 µM: Vesicular stomatitis virus, Vero C1008, 18 h, read-out: Viral Infection rate (%); for activity at 0.312 µM: Compound Conc. 0.312 μM; for activity at 0.625 µM: Compound Conc. 0.625 μM; for activity at 1.25 µM: Compound Conc. 1.25 μM; for activity at 2.5 µM: Compound Conc. 2.5 μM; for activity at 0.005 µM: Compound Conc. 0.005 μM; for activity at 0.02 µM: Compound Conc. 0.020 μM; for activity at 0.078 µM: Compound Conc. 0.078 μM

SMILES | activity at 0.312 µM | activity at 0.625 µM | activity at 1.25 µM | activity at 2.5 µM | activity at 5 µM (Compound Conc. 5 μM) | activity at 0.005 µM | activity at 0.02 µM | activity at 0.078 µM | Viral Infection rate (%) (Compound Conc. 5 μM)
CCN(CC)CCCN(c1ccc(OC)cc1[N+](=O)[O-])S(=O)(=O)c1ccccc1 [4-1, N-[3-(diethylamino)propyl]-N-(4-methoxy-2-nitro-phenyl)benzensulfonamide] | 87.5% | ~38% | ~12% | 2.83% | 1.83% | – | – | – | –
CCN(CC)CCCN(c1ccc(OC)cc1[N+](=O)[O-])S(=O)(=O)c1ccc(F)cc1 [4-3, 4-fluoro-N-[3-(diethylamino)propyl]-N-(4-methoxy-2-nitro-phenyl)benzensulfonamide] | 105% | 88.1% | 52.8% | 18.4% | 3.8% | – | – | – | –
CCN(CC)CCCN(c1ccc(OC)cc1[N+](=O)[O-])S(=O)(=O)c1cccc(F)c1 [4-4, 3-fluoro-N-[3-(diethylamino)propyl]-N-(4-methoxy-2-nitro-phenyl)benzensulfonamide] | 84.4% | 71.3% | 29.7% | 8.13% | 2.05% | – | – | – | –
CCN(CC)CCCN(c1ccc(OC)cc1[N+](=O)[O-])S(=O)(=O)c1ccccc1F [4-5, 2-fluoro-N-[3-(diethylamino)propyl]-N-(4-methoxy-2-nitro-phenyl)benzensulfonamide] | – | 94.2% | 54.9% | – | 3.18% | – | – | – | –
CCN(CC)CCCN(c1ccc(OC)cc1[N+](=O)[O-])S(=O)(=O)c1cccc(C)c1 [4-6, 3-methyl-N-[3-(diethylamino)propyl]-N-(4-methoxy-2-nitro-phenyl)benzenesulfonamide] | 91.2% | 91.1% | 57.1% | 20.1% | 3.8% | – | – | – | –
CCN(CC)CCCN(c1ccc(OC)cc1[N+](=O)[O-])S(=O)(=O)c1ccccc1C [4-7, 2-methyl-N-[3-(diethylamino)propyl]-N-(4-methoxy-2-nitro-phenyl)benzensulfonamide] | 87.2% | 68.4% | 37% | 12.9% | 5.08% | – | – | – | –
CCN(CC)CCCN(c1ccccc1-c1ccccc1)S(=O)(=O)c1ccccc1 [4-8, N-[3-(diethylamino)propyl]-N-(2-phenyl-phenyl)benzensulfonamide] | 89% | – | 10.8% | 1.93% | 1.11% | – | – | – | –
CCN(CC)CCCN(c1ccc(OC)cc1[N+](=O)[O-])S(=O)(=O)c1cccc2ccccc12 [4-9, N-[3-(diethylamino)propyl]-N-(4-methoxy-2-nitro-phenyl)naphthalene-1-sulfonamide] | 82.5% | 58.6% | 20.8% | – | 2.32% | – | – | – | –
CCN(CC)CCCN(c1ccc(OC)cc1[N+](=O)[O-])S(=O)(=O)c1ccc2ccccc2c1 [4-10, N-[3-(diethylamino)propyl]-N-(4-methoxy-2-nitro-phenyl)naphthalene-2-sulfonamide] | 106% | 103% | – | 22.7% | 3.57% | – | – | – | –
CCN(CC)CCCN(c1ccc(OC)cc1[N+](=O)[O-])S(=O)(=O)c1ccc(OC)cc1 [4-11, 4-methoxy-N-[3-(diethylamino)propyl]-N-(4-methoxy-2-nitro-phenyl)benzensulfonamide] | 88.3% | – | – | – | 2.09% | – | – | – | –
CCN(CC)CCCN(c1ccccc1-c1ccccc1)S(=O)(=O)c1cccc2ccccc12 [4-13, N-[3-(diethylamino)propyl]-N-(2-phenyl-phenyl)naphthalene-1-sulfonamide] | – | 90.2% | – | – | – | – | – | – | –
CCN(CC)CCCN(c1ccccc1-c1ccccc1)S(=O)(=O)c1ccc(OC)cc1 [4-14, 4-methoxy-N-[3-(diethylamino)propyl]-N-(2-phenyl-phenyl)benzensulfonamide] | 77.4% | 42.2% | 7.82% | – | 0.83% | – | – | – | –
COc1ccc(N(CC2CCN(C(=O)OC(C)(C)C)CC2)S(=O)(=O)c2ccccc2)c(-c2ccccc2)c1 [4-18, t-butyl-4-[[N-(benzenesulfonyl)-4-methoxy-2-phenyl-anilino]methyl]piperidine-1-carboxylate] | – | – | – | – | 23.3% | – | – | – | –
COc1ccc(N(CC2CCNCC2)S(=O)(=O)c2ccccc2)c(-c2ccccc2)c1 [4-19, N-(4-methoxy-2-phenyl-phenyl)-N-(4-piperidylmethyl)benzensulfonamide] | 83.3% | 78.5% | 52.3% | – | 2.2% | – | – | – | –
COc1ccc(N(CC2CCCN(C(=O)OC(C)(C)C)C2)S(=O)(=O)c2ccccc2)c(-c2ccccc2)c1 (stereo not drawn) [4-22, t-butyl-3-[[N-(benzenesulfonyl)-4-methoxy-2-phenyl-anilino]methyl]piperidine-1-carboxylate] | – | – | – | – | ~8.7% | – | – | – | –
COc1ccc(N(CC2CCCNC2)S(=O)(=O)c2ccccc2)c(-c2ccccc2)c1 (stereo not drawn) [4-23, N-(4-methoxy-2-phenyl-phenyl)-N-(3-piperidylmethyl)benzensulfonamide] | 100% | – | – | ~24.4% | 1.79% | – | – | – | –
CCN1CCCC(CN(c2ccc(OC)cc2-c2ccccc2)S(=O)(=O)c2ccccc2)C1 (stereo not drawn) [4-25] | 58.1% | 24.3% | 2.51% | 0.14% | 0.14% | – | – | – | –
CNCCCN(c1ccc(OC)cc1-c1ccccc1)S(=O)(=O)c1ccccc1 [4-30, N-(4-methoxy-2-phenyl-phenyl)-N-[3-(methylamino)propyl]-benzensulfonamide] | – | 80.8% | – | 4.17% | – | 92.6% | 91% | 78.1% | –
COc1ccc(N(CCCNC(=O)OC(C)(C)C)S(=O)(=O)c2ccccc2)c(-c2ccccc2)c1 [4-31, t-butyl-N-[3-[N-(benzenesulfonyl)-4-methoxy-2-phenyl-anilino]propyl]carbamate] | ~100% | – | – | – | 8.51% | – | – | – | –
COc1ccc(N(CCCN)S(=O)(=O)c2ccccc2)c(-c2ccccc2)c1 [4-32, N-(3-aminopropyl)-N-(4-methoxy-2-phenyl-phenyl)benzensulfonamide] | 86% | 82.4% | 57.8% | 15.8% | 0.47% | – | – | – | –
COc1ccc(N(CCN(C)C)S(=O)(=O)c2ccccc2)c(-c2ccccc2)c1 [4-33, N-[3-(dimethylamimo)ethyl]-N-(4-methoxy-2-phenyl-phenyl)benzensulfonamide] | 81.1% | 71.3% | 17.1% | 1.51% | 0.1% | – | – | – | –
COc1ccc(N(CCN2CCOCC2)S(=O)(=O)c2ccccc2)c(-c2ccccc2)c1 [4-34, N-(4-methoxy-2-phenyl-phenyl)-N-(2-morpholinoethyl)benzensulfonamide] | – | – | 76.9% | 40.2% | 4.56% | – | – | – | –
COc1ccc(N(CCN2CCCCC2)S(=O)(=O)c2ccccc2)c(-c2ccccc2)c1 [4-35, N-(4-methoxy-2-phenyl-phenyl)-N-[2-(1-piperidyl)ethyl]benzensulfonamide] | 89.5% | 82.3% | 1.82% | 30.3% | – | – | – | – | –
CCOc1ccc(N(CC2CCN(CC)CC2)S(=O)(=O)c2ccccc2)c(-c2ccccc2)c1 [4-39] | – | – | 116% | – | – | 98.4% | 103% | – | –
COc1ccc(N(CC2CCCN(C)C2)S(=O)(=O)c2ccccc2)c(-c2ccccc2)c1 (stereo not drawn) [4-42] | 93% | 28.4% | – | 0.25% | ~0% | 95.6% | 101% | 102% | 0.00%
CCN1CCC(CN(c2ccc(C(C)C)cc2-c2ccccc2)S(=O)(=O)c2ccccc2)CC1 [4-45, N-(4-isopropyl-2-phenyl-phenyl)-N-(1-ethyl-4-piperidylmethyl)benzensulfonamide] | 103% | – | 69.5% | – | 0.23% | 90.8% | 101% | 104% | –
CCN1CCC(CN(c2ccc(C(C)(C)C)cc2-c2ccccc2)S(=O)(=O)c2ccccc2)CC1 [4-48, N-(4-t-butyl-2-phenyl-phenyl)-N-(1-ethyl-4-piperidylmethyl)benzensulfonamide] | – | – | – | – | 47.6% | 97.1% | 104% | 96.3% | –
CCN1CCC(CN(c2ccc(OC)cc2-c2ccc(F)cc2)S(=O)(=O)c2ccccc2)CC1 [4-51, N-[2-(4-fluorophenyl)-4-methoxy-phenyl)-N-(1-ethyl-4-piperidylmethyl)benzensulfonamide] | 11.9% | – | 0.51% | – | 0% | 92.2% | 84.5% | 45% | –
CCN1CCC(CN(c2ccc(OC)cc2-c2cccc(F)c2)S(=O)(=O)c2ccccc2)CC1 [4-54, N-[2-(3-fluorophenyl)-4-methoxy-phenyl)-N-(1-ethyl-4-piperidylmethyl)benzensulfonamide] | 28.6% | – | 0.1% | – | 0% | – | 90% | 74.5% | –
